In patent US20150005242A1, “AROMATIC-CATIONIC PEPTIDES AND USES OF SAME” (Institut de Recherches Cliniques de Montreal, priority 2010, published 2015):

Key:
[1] = target: cytochrome c (cyt c) (Homo sapiens, UniProt P99999); assay: kinetics of cyt c reduction monitored by absorbance spectroscopy (A550); assay type: biochemical; conditions: for cyt c reduction by peptide alone: peptide alone at 100 μM, no reducing agent
Protocol: FIG. 1 is a chart showing that the peptide D-Arg-Dmt-Lys-Phe-NH2 increases the rate of cytochrome c (cyt c) reduction. Reduced cyt c was measured by absorbance at 550 nm. […] The peptide alone at 100 μM had no effect.
We hypothesize that the distribution of aromatic cationic peptides among the protein complexes in the IMM allows it to serve as additional relay stations to facilitate ET. In support of this hypothesis, we have used the kinetics of cyt c reduction (monitored by absorbance spectroscopy) as a simple model system to determine if the peptide D-Arg-2′6′-Dmt-Lys-Phe-NH2 can facilitate ET.

[2] = test system: renal ischemia-reperfusion (IR) injury; assay: restoration of mitochondrial respiration and ATP synthesis following renal ischemia-reperfusion (IR) injury; assay type: in vivo; conditions: rats, 2.0 mg/kg sc 30 min before ischemia and at reperfusion; for state 3 respiration (oxygen consumption) in isolated renal mitochondria: 45 min bilateral renal artery occlusion, 20 min reperfusion, p<0.01; for ATP content (ATP synthesis) in rat kidney: 45 min ischemia, 1 h after IR injury, P<0.05
Protocol: FIG. 2 is a chart showing treatment with D-Arg-Dmt-Lys-Phe-NH2 increased state 3 respiration in isolated renal mitochondria after 20 min IR injury (p<0.01).
FIG. 3 is a chart showing that treatment with D-Arg-Dmt-Lys-Phe-NH2 increased ATP content in rat kidney at 1 h after IR injury (P<0.05).
Preliminary studies further support our hypothesis that D-Arg-2′6′-Dmt-Lys-Phe-NH2 can facilitate ET and improve ATP synthesis in vivo. We have examined the effect of this peptide on restoration of mitochondrial respiration and ATP synthesis following ischemia-reperfusion (IR) injury in rats. Rats were subjected to bilateral occlusion of renal artery for 45 min followed by 20 min or 1 h reperfusion. Rats received saline or peptide (2.0 mg/kg sc) 30 min before ischemia and again at the time of reperfusion (n=4-5 in each group).

[3] = test system: mitochondrial ROS; assay: mitochondrial ROS and mitochondrial function in cellular and animal studies; assay type: cell-based
From the text: These examples identify “druggable” chemical compounds that can reduce mitochondrial oxidative stress and protect mitochondrial function. As mitochondria are the major source of intracellular reactive oxygen species (ROS), the antioxidant must be delivered to mitochondria in order limit oxidative damage to mitochondrial DNA, proteins of the electron transport chain (ETC), and the mitochondrial lipid membranes. We discovered a family of synthetic aromatic-cationic tetrapeptides that selectively target and concentrate in the inner mitochondrial membrane (IMM). Some of these peptides contain redox-active amino acids that can undergo one-electron oxidation and behave as mitochondria-targeted antioxidants. […] Although radical scavenging is the most commonly used approach to reduce oxidative stress, there are other potential mechanisms that can be used, including facilitation of electron transfer to reduce electron leak and improved mitochondrial reduction potential.

[4] = neutralization of reactive species and inhibition of lipid peroxidation; assay type: biochemical
[5] = test system: animal models of ischemia-reperfusion injury, neurodegenerative diseases, and metabolic syndrome; assay: animal models of ischemia-reperfusion injury, neurodegenerative diseases, and metabolic syndrome; assay type: in vivo
[6] = listed as D-Arg-2′6′-Dmt-Lys-Phe-NH2, 2 mg/kg

Chain of cytochrome c (cyt c) (P99999 whole entry, species assumed): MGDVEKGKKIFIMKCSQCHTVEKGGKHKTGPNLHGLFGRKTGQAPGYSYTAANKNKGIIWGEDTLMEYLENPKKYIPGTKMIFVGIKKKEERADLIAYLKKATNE

Row | Substance | rate of NAC-induced cyt c reduction ([1]; 40 μM NAC as reducing agent, absorbance at 550 nm) | cyt c reduction by peptide alone [1] | cyt c reduction by peptide alone ([1]; listed as D-Arg-2′6′-Dmt-Lys-Phe-NH2) | state 3 respiration (oxygen consumption) in isolated renal mitochondria ([2]; 2 mg/kg) | state 3 respiration (oxygen consumption) in isolated renal mitochondria [2, 6] | ATP content (ATP synthesis) in rat kidney ([2]; 2 mg/kg) | ATP content (ATP synthesis) in rat kidney [2, 6] | mitochondrial ROS ([3]; cellular and animal studies) | mitochondrial function ([3]; cellular and animal studies) | protection against mitochondrial oxidative stress ([3]; compared with mitochondrial catalase overexpression) | lipid peroxidation [4] | neutralization of H2O2 [4] | neutralization of hydroxyl radical [4] | neutralization of peroxynitrite [4] | efficacy in animal models [5] | oral bioavailability
1 | D-Arg-2′6′-Dmt-Lys-Phe-NH2 [D-Arg-Dmt-Lys-Phe-NH2] | dose-dependently increased | had no effect | did not reduce cyt c | increased | improved | increased | improved | – | – | – | – | – | – | – | – | –
2 | D-Arg-2′6′-Dmt-Tyr-Lys-Phe-NH2 | – | – | – | – | – | – | – | reduces | protect | comparable to that observed with mitochondrial catalase overexpression | inhibit | can neutralize | can neutralize | can neutralize | remarkable efficacy | limited by degradation in intestinal fluids
